# Test results: patent publication US20240116951A1, “HETEROCYCLIC COMPOUNDS AND USES THEREOF” (Kumquat Biosciences Inc., priority 2022, published 2024)
# Assays:
# Assay type in all cases: binding
# KRAS WT = biological target: T1, KRAS WT (Homo sapiens, UniProt P01116); experiment: HTRF assay of wildtype K-Ras interaction with SOS1 (PPI-HTRF); settings: HTRF, 5 nM KRAS WT; read-out: PPI-HTRF-5 nM KRAS WT
# T1 construct: made in house; host or cells: E. coli, e.g. BL21 (DE3)
# How it was run: (§1)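 HTRF on GST-K-Ras/His-hSOS1 was measured after ≥10 min in pH 7.4 HEPES buffer. IC50 values were derived from the ratiometric emission signal.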
# KRAS G12D = biological target: T2, KRAS G12D (Homo sapiens, UniProt P01116, G12D); experiment: HTRF assay of K-Ras G12D interaction with SOS1 (PPI-HTRF); settings: HTRF, 5 nM KRAS G12D; read-out: PPI-HTRF-5 nM KRAS G12D
# T2 construct: made in house; host or cells: E. coli, e.g. BL21 (DE3)
# How it was run: as §1
# KRAS G12S = biological target: T3, KRAS G12S (Homo sapiens, UniProt P01116, G12S); experiment: HTRF assay of K-Ras G12S interaction with SOS1 (PPI-HTRF); settings: 5 nM KRAS G12S, read-out: PPI-HTRF-5 nM KRAS G12S
# T3 construct: made in house; host or cells: E. coli, e.g. BL21 (DE3)
# How it was run: as §1
# T3 sequence (P01116 1-188 isoform P01116-2 G12S): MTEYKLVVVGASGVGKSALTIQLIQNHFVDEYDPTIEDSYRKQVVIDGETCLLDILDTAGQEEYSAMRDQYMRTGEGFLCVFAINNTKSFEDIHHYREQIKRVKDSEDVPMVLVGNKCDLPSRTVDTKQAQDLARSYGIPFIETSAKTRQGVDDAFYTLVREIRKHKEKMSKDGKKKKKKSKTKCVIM
# T1 sequence (P01116 1-188 isoform P01116-2): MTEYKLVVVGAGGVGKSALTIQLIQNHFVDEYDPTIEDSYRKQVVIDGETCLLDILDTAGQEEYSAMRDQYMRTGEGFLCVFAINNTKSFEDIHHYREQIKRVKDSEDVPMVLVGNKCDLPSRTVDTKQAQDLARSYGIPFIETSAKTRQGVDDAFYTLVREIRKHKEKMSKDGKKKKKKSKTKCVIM
# T2 sequence (P01116 1-188 isoform P01116-2 G12D): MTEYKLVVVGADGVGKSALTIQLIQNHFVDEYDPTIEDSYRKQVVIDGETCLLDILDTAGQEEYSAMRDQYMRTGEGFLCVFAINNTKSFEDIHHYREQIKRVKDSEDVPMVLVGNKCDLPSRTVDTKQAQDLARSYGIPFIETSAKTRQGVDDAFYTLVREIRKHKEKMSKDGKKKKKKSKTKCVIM
Structure (SMILES),IC50 (KRAS WT),IC50 (KRAS G12D),IC50 (KRAS G12S)
"C#Cc1c(F)ccc2cc(O)cc(-c3ccc4c(N5CCC6(CCN6C(=O)n6cncn6)C5)nc(OC[C@@]56CCCN5C[C@H](F)C6)nc4c3F)c12 (stereo partly drawn) [Compound 277, (6-(7-(8-ethynyl-7-fluoro-3-hydroxynaphthalen-1-yl)-8-fluoro-2-(((2R,7aS)-2-fluorotetrahydro-1H-pyrrolizin-7a(5H)-yl)methoxy)quinazolin-4-yl)-1,6-diazaspiro[3.4]octan-1-yl)(1H-1,2,4-triazol-1-yl)methanone]",< 5 µM,< 5 µM,< 5 µM
"N#Cc1c(N)sc2c(F)ccc(-c3c(Cl)cc4c(N5CCC6(CCN6C(=O)n6nc(C7CC7)nc6Cl)C5)nc(OC[C@@]56CCCN5C[C@H](F)C6)nc4c3F)c12 (stereo partly drawn) [Compound 288, 2-amino-4-(6-chloro-4-(1-(5-chloro-3-cyclopropyl-1H-1,2,4-triazole-1-carbonyl)-1,6-diazaspiro[3.4]octan-6-yl)-8-fluoro-2-(((2R,7aS)-2-fluorotetrahydro-1H-pyrrolizin-7a(5H)-yl)methoxy)quinazolin-7-yl)-7-fluorobenzo[b]thiophene-3-carbonitrile]",< 5 µM,< 5 µM,< 5 µM
"N#Cc1c(N)sc2c(F)ccc(-c3c(Cl)cc4c(N5CCC6(CCCN6C(=O)n6cncn6)C5)nc(OC[C@@]56CCCN5C[C@H](F)C6)nc4c3F)c12 (stereo partly drawn) [Compound 261, 4-(4-(1-(1H-1,2,4-triazole-1-carbonyl)-1,7-diazaspiro[4.4]nonan-7-yl)-6-chloro-8-fluoro-2-(((2R,7aS)-2-fluorotetrahydro-1H-pyrrolizin-7a(5H)-yl)methoxy)quinazolin-7-yl)-2-amino-7-fluorobenzo[b]thiophene-3-carbonitrile]",< 5 µM,< 5 µM,< 5 µM
"Nc1nc2c(-c3ccc4c(N5CC6(CNCCN6)C5)nc(OC[C@@]56CCCN5C[C@H](F)C6)nc4c3F)ccc(F)c2s1 [Compound 253, 7-fluoro-4-(8-fluoro-2-(((2R,7aS)-2-fluorotetrahydro-1H-pyrrolizin-7a(5H)-yl)methoxy)-4-(2,5,8-triazaspiro[3.5]nonan-2-yl)quinazolin-7-yl)benzo[d]thiazol-2-amine]",< 5 µM,> 5 µM,> 5 µM
"N#Cc1c(N)sc2c(F)ccc(-c3c(Cl)cc4c(N5CCCC6(CCCN6C(=O)n6cncn6)C5)nc(OC[C@@]56CCCN5C[C@H](F)C6)nc4c3F)c12 (stereo partly drawn) [Compound 208, 4-(4-(1-(1H-1,2,4-triazole-1-carbonyl)-1,7-diazaspiro[4.5]decan-7-yl)-6-chloro-8-fluoro-2-(((2R,7aS)-2-fluorotetrahydro-1H-pyrrolizin-7a(5H)-yl)methoxy)quinazolin-7-yl)-2-amino-7-fluorobenzo[b]thiophene-3-carbonitrile]",< 5 µM,< 5 µM,< 5 µM
"CC(C)c1ncn(C(=O)N2CCC23CCN(c2nc(OC[C@@]45CCCN4C[C@H](F)C5)nc4c(F)c(-c5ccc(F)c6sc(N)c(C#N)c56)c(Cl)cc24)C3)n1 (stereo partly drawn) [Compound 304, 2-amino-4-(6-chloro-8-fluoro-2-(((2R,7aS)-2-fluorotetrahydro-1H-pyrrolizin-7a(5H)-yl)methoxy)-4-(1-(3-isopropyl-1H-1,2,4-triazole-1-carbonyl)-1,6-diazaspiro[3.4]octan-6-yl)quinazolin-7-yl)-7-fluorobenzo[b]thiophene-3-carbonitrile]",< 5 µM,< 5 µM,< 5 µM
"N#Cc1c(N)sc2c(F)ccc(-c3c(Cl)cc4c(N5CCC6(CC5)CCN6C(=O)[C@@H]5N[C@H]5C5CC5)nc(OC[C@@]56CCCN5C[C@H](F)C6)nc4c3F)c12 [Compound 262, 2-amino-4-(6-chloro-4-(1-((2R,3S)-3-cyclopropylaziridine-2-carbonyl)-1,7-diazaspiro[3.5]nonan-7-yl)-8-fluoro-2-(((2R,7aS)-2-fluorotetrahydro-1H-pyrrolizin-7a(5H)-yl)methoxy)quinazolin-7-yl)-7-fluorobenzo[b]thiophene-3-carbonitrile]",< 5 µM,< 5 µM,< 5 µM
"N#Cc1c(N)sc2c(F)ccc(-c3c(Cl)cc4c(N5CCC6(CCN6C(=O)n6cncn6)C5)nc(OC[C@@]56CCCN5C[C@H](F)C6)nc4c3F)c12 (stereo partly drawn) [Compound 221, (4R)-4-(4-(1-(1H-1,2,4-triazole-1-carbonyl)-1,6-diazaspiro[3.4]octan-6-yl)-6-chloro-8-fluoro-2-(((2R,7aS)-2-fluorotetrahydro-1H-pyrrolizin-7a(5H)-yl)methoxy)quinazolin-7-yl)-2-amino-7-fluorobenzo[b]thiophene-3-carbonitrile]",< 5 µM,< 5 µM,< 5 µM
"N#Cc1c(N)sc2c(F)ccc(-c3c(Cl)cc4c(N5CCC6(CCN6C(=O)ON6C(=O)CCC6=O)C5)nc(OC[C@@]56CCCN5C[C@H](F)C6)nc4c3F)c12 (stereo partly drawn) [Compound 243, 2,5-dioxopyrrolidin-1-yl 6-(7-(2-amino-3-cyano-7-fluorobenzo[b]thiophen-4-yl)-6-chloro-8-fluoro-2-(((2R,7aS)-2-fluorotetrahydro-1H-pyrrolizin-7a(5H)-yl)methoxy)quinazolin-4-yl)-1,6-diazaspiro[3.4]octane-1-carboxylate]",< 5 µM,< 5 µM,< 5 µM
"N#Cc1c(N)sc2c(F)ccc(-c3c(Cl)cc4c(N5CCC6(CCN6C(=O)n6cnc(C(F)F)n6)C5)nc(OC[C@@]56CCCN5C[C@H](F)C6)nc4c3F)c12 (stereo partly drawn) [Compound 215, 2-amino-4-(6-chloro-4-(1-(3-(difluoromethyl)-1H-1,2,4-triazole-1-carbonyl)-1,6-diazaspiro[3.4]octan-6-yl)-8-fluoro-2-(((2R,7aS)-2-fluorotetrahydro-1H-pyrrolizin-7a(5H)-yl)methoxy)quinazolin-7-yl)-7-fluorobenzo[b]thiophene-3-carbonitrile]",< 5 µM,< 5 µM,< 5 µM
"N#Cc1c(N)sc2c(F)ccc(-c3c(Cl)cc4c(N5CCC6(CCN6C(=O)OC(CO)C(F)(F)F)C5)nc(OC[C@@]56CCCN5C[C@H](F)C6)nc4c3F)c12 (stereo partly drawn) [Compound 345, 1,1,1-trifluoro-3-hydroxypropan-2-yl 6-(7-(2-amino-3-cyano-7-fluorobenzo[b]thiophen-4-yl)-6-chloro-8-fluoro-2-(((2R,7aS)-2-fluorotetrahydro-1H-pyrrolizin-7a(5H)-yl)methoxy)quinazolin-4-yl)-1,6-diazaspiro[3.4]octane-1-carboxylate]",< 5 µM,< 5 µM,< 5 µM
"Cc1cn(C(=O)N2CCC23CCN(c2nc(OC[C@@]45CCCN4C[C@H](F)C5)nc4c(F)c(-c5ccc(F)c6sc(N)c(C#N)c56)c(Cl)cc24)C3)nn1 (stereo partly drawn) [Compound 336, 2-amino-4-(6-chloro-8-fluoro-2-(((2R,7aS)-2-fluorotetrahydro-1H-pyrrolizin-7a(5H)-yl)methoxy)-4-(1-(4-methyl-1H-1,2,3-triazole-1-carbonyl)-1,6-diazaspiro[3.4]octan-6-yl)quinazolin-7-yl)-7-fluorobenzo[b]thiophene-3-carbonitrile]",< 5 µM,< 5 µM,< 5 µM
"Nc1nc2c(-c3c(Cl)cc4c(N5CCCC6(CCN6)C5)nc(OC[C@@]56CCCN5C[C@H](F)C6)nc4c3F)ccc(F)c2s1 (stereo partly drawn) [Compound 202, 4-(6-chloro-8-fluoro-2-(((2R,7aS)-2-fluorotetrahydro-1H-pyrrolizin-7a(5H)-yl)methoxy)-4-(1,6-diazaspiro[3.5]nonan-6-yl)quinazolin-7-yl)-7-fluorobenzo[d]thiazol-2-amine]",< 5 µM,< 5 µM,< 5 µM
"N#Cc1c(NC(=O)C2CC2(F)F)sc2c(F)ccc(-c3c(F)c4nc(OC[C@@]56CCCN5C[C@H](F)C6)nc(N5CCC6(CCN6C(=O)C6CC6(F)F)C5)c4c(=O)n3C3CC3)c12 (stereo partly drawn) [Compound 343, N-(3-cyano-4-(6-cyclopropyl-4-(1-(2,2-difluorocyclopropane-1-carbonyl)-1,6-diazaspiro[3.4]octan-6-yl)-8-fluoro-2-(((2R,7aS)-2-fluorotetrahydro-1H-pyrrolizin-7a(5H)-yl)methoxy)-5-oxo-5,6-dihydropyrido[4,3-d]pyrimidin-7-yl)-7-fluorobenzo[b]thiophen-2-yl)-2,2-difluorocyclopropane-1-carboxamide]",< 5 µM,< 5 µM,< 5 µM
"Cc1ncn(C(=O)N2CC[C@@]23CCN(c2nc(OC[C@@]45CCCN4C[C@H](F)C5)nc4c(F)c(-c5ccc(F)c6sc(N)c(C#N)c56)c(Cl)cc24)C3)n1 (atropisomer, axis not shown; (aS)) [Compound 338, (R)-2-amino-4-(6-chloro-8-fluoro-2-(((2R,7aS)-2-fluorotetrahydro-1H-pyrrolizin-7a(5H)-yl)methoxy)-4-((R)-1-(3-methyl-1H-1,2,4-triazole-1-carbonyl)-1,6-diazaspiro[3.4]octan-6-yl)quinazolin-7-yl)-7-fluorobenzo[b]thiophene-3-carbonitrile]",< 5 µM,< 5 µM,< 5 µM
"Nc1nc2c(-c3c(Cl)cc4c(N5CC6(CCN6)C5)nc(OC[C@@]56CCCN5C[C@H](F)C6)nc4c3F)ccc(F)c2s1 [Compound 259, 4-(6-chloro-8-fluoro-2-(((2R,7aS)-2-fluorotetrahydro-1H-pyrrolizin-7a(5H)-yl)methoxy)-4-(1,6-diazaspiro[3.3]heptan-6-yl)quinazolin-7-yl)-7-fluorobenzo[d]thiazol-2-amine]",< 5 µM,< 5 µM,< 5 µM
